Molecules are shown by their SMILES.

Holding throughout (assay type): functional
What all share (parameters): concentration or dose not given beside the values

The subject of one assay is Plasmodium berghei. In words: MMV: P. berghei-infected blood was withdrawn from mice by cardiac pucture before being immediately added to ookinete culture medium containing test compounds. 26 hr later, GFP-positive ookinetes were identified and counted by automated microscopy. All compounds were tested in 4 independent experiments and data presented here is the mean.
The test system of assay [1] is Plasmodium falciparum. In words: MMV: P. falciparum NF54 functionally mature Stage V gametocytes were incubated for 24 hr in the presence of the test compounds. Gamete formation was then triggered by addition of 2uM xantheurenic acid and temperature decrease to ~20C. Male gamete exflagellation was recorded and analysed by automated microscopy after 20 min. All compounds were tested in 4 independent experiments and data presented here is the mean.

Assay [2] has as its system Plasmodium falciparum. Description: MMV: P. falciparum NF54 functionally mature Stage V gametocytes were incubated for 24 hr in the presence of the test compounds. Gamete formation was then triggered by addition of 2uM xantheurenic acid and temperature decrease to ~20C. Female gamete formation was recorded 24 hr later by automated microscopy detection of surface labelling of female gametes with a Cy3-conjugated antibody reactive to Pfs25. All compounds were tested in 4 independent experiments and data presented here is the mean. The conditions noted are these: NF54, 24 h.

Consider `COc1ccc(Nc2nc(NCc3ccccc3)c3ccccc3n2)cc1`, for which the values for the inhibition in the assay on Plasmodium berghei, in the assay with Plasmodium falciparum [1] and with Plasmodium falciparum [2] were -12.84%, -30.2% and -14.7%, respectively.

With `COc1ccc(-c2cc3c(SCC(=O)Nc4cc(C(F)(F)F)ccc4Cl)nccn3n2)cc1`, the results for the inhibition in the assay with Plasmodium berghei, in the assay with Plasmodium falciparum [1] and in the assay on Plasmodium falciparum [2] were -25.97%, 23.5% and -16.8%, respectively.

For the molecule `O=C(NC1CCN(Cc2ccccc2)CC1)c1cc(-c2ccncc2)nc2ccc(Cl)cc12`, the results for the inhibition with Plasmodium berghei, in the assay with Plasmodium falciparum [1] and with Plasmodium falciparum [2] were -9.022%, -6.34% and -10.1%, respectively.

`FC(F)(F)c1cccc(CNC2CCN(CCc3ccccc3)CC2)c1`: the inhibition is 1.472% in the assay with Plasmodium berghei, -0.872% in the assay with Plasmodium falciparum [1] and -31.1% with Plasmodium falciparum [2].

In the case of `O=C(NCCCN1CCC(N2CCCCC2)CC1)C1=Cc2cc(Br)ccc2OC1`, the inhibition is -4.183% in the assay with Plasmodium berghei, 8.14% in the assay on Plasmodium falciparum [1] and 15% in the assay with Plasmodium falciparum [2].

With `CCOC(=O)C1(Cc2ccccc2)CCN(Cc2cccc(OC)c2O)CC1`, the results for the inhibition in the assay on Plasmodium berghei, in the assay on Plasmodium falciparum [1] and with Plasmodium falciparum [2] were -6.801%, -10.2% and -9.84%, respectively.

On to `Oc1ccc(Cl)cc1CNc1nc2ccccc2[nH]1`, for which the inhibition is -5.247% with Plasmodium berghei, 53.3% in the assay on Plasmodium falciparum [1] and -26.8% in the assay on Plasmodium falciparum [2].

As for `CCOc1cc2c(cc1OCC)C(c1cc(Cl)c(O)c(OCC)c1)NCC2` (configuration not stated), the inhibition is -11.39% in the assay with Plasmodium berghei, 22.4% in the assay on Plasmodium falciparum [1] and 14.7% in the assay on Plasmodium falciparum [2].

As to `O=C(Nc1ccc(CN2CCOCC2)cc1)c1ccc(-c2cc(Cl)ccc2Cl)o1`, the results for the inhibition in the assay on Plasmodium berghei, in the assay with Plasmodium falciparum [1] and in the assay with Plasmodium falciparum [2] were -15.91%, 2.57% and -21.4%, respectively.

On to `COc1cc(OC)c(N(C)C(=O)c2cc3c(s2)-c2ccccc2S(=O)(=O)C3)cc1Cl`, for which the inhibition with Plasmodium berghei is -16.25%; with Plasmodium falciparum [1], 7.68%; in the assay with Plasmodium falciparum [2], -14.9%.

As for `CCCCCCc1cc2cc(-c3nc4ccccc4[nH]3)c(=Nc3ccccc3C)oc2cc1O`, the inhibition in the assay on Plasmodium berghei was 23.15%; in the assay with Plasmodium falciparum [1], 9.8%; in the assay with Plasmodium falciparum [2], 5.88%.

In the case of `CCOc1cccc(C(=O)Nc2ccc(-c3nc4ccccc4[nH]3)cc2)c1`, the inhibition in the assay with Plasmodium berghei was -10.12%; with Plasmodium falciparum [1], 32.1%; in the assay on Plasmodium falciparum [2], -29.6%.

Take `CCOc1ccc2nc(C)cc(Nc3ccc(Br)cc3)c2c1`: the inhibition with Plasmodium berghei is -16.41%; in the assay on Plasmodium falciparum [1], -29.1%; with Plasmodium falciparum [2] it was -27.4%.

For the molecule `CCOC(=O)c1c(C)n(-c2ccccc2)c2ccc(OC(=O)c3cc(OC)c(OC)c(OC)c3)cc12`, the inhibition is -17.17% with Plasmodium berghei, 18.3% in the assay with Plasmodium falciparum [1] and -31.5% in the assay on Plasmodium falciparum [2].

As to `COc1ccc(CCn2c(=N)c(C(=O)NCc3cccnc3)cc3c(=O)n4cccc(C)c4nc32)cc1`, the results for the inhibition in the assay on Plasmodium berghei, in the assay on Plasmodium falciparum [1] and in the assay on Plasmodium falciparum [2] were 23.24%, -7.17% and -20.7%, respectively.

For `Cc1ccc(-c2cc3nc4c(c(O)n3n2)CCCC4)cc1`, the values for the inhibition with Plasmodium berghei, in the assay with Plasmodium falciparum [1] and in the assay with Plasmodium falciparum [2] were 12.06%, 22.3% and -14.6%, respectively.

On to `COc1nc(Nc2ccc(C(C)C)cc2)nc(OC)n1`, for which the inhibition in the assay on Plasmodium berghei was -7.623%; in the assay with Plasmodium falciparum [1], -0.697%; in the assay with Plasmodium falciparum [2], -59.5%.

Take `Cc1cc(Nc2ccc3ccccc3c2)n2ncnc2n1`: the inhibition with Plasmodium berghei is -3.995%; in the assay with Plasmodium falciparum [1], -4.18%; in the assay with Plasmodium falciparum [2], -8.79%.

For the molecule `O=C(NC1CCCCC1)C(c1cccs1)N(CCc1ccccc1)C(=O)c1ccco1` (configuration not stated), the inhibition in the assay on Plasmodium berghei is -4.107%; in the assay with Plasmodium falciparum [1], 6.52%; with Plasmodium falciparum [2] it was -15.1%.

`CCCCCCc1cc2cc(-c3csc(C=Cc4ccccc4)n3)c(=O)oc2cc1O`: the figures for the inhibition in the assay with Plasmodium berghei, in the assay on Plasmodium falciparum [1] and with Plasmodium falciparum [2] were -12.07%, -65.7% and -35.1%, respectively.

Turning to `O=C(Nc1ccc(F)c(Cl)c1)Nc1ccc(Cl)c(Cl)c1`, the inhibition was -10.47% with Plasmodium berghei, 15.7% with Plasmodium falciparum [1] and -12.2% in the assay on Plasmodium falciparum [2].

As for `Cn1c(=O)c2cc(C(=O)NCCCN3CCCCCC3)sc2c2ccccc21`, the inhibition was 5.415% in the assay with Plasmodium berghei, 20.7% in the assay on Plasmodium falciparum [1] and -16.3% with Plasmodium falciparum [2].

Consider `CC(Oc1ccc(NC(=O)c2cccs2)cc1)C(=O)c1ccc(Cl)cc1` (configuration not stated), for which the inhibition in the assay with Plasmodium berghei is 73.22%; in the assay with Plasmodium falciparum [1], 25.6%; in the assay with Plasmodium falciparum [2] it was -14%.

On to `FC(F)(F)c1cccc(Nc2nc3ccccc3nc2Nc2cccc(C(F)(F)F)c2)c1`, for which the inhibition was -0.8978% in the assay on Plasmodium berghei, 24.6% in the assay with Plasmodium falciparum [1] and -14.6% in the assay on Plasmodium falciparum [2].

With `CN1CCN(c2c3c(c(C#N)c4nc5ccccc5n24)CCC3)CC1`, the inhibition with Plasmodium berghei was 0.2959%; in the assay on Plasmodium falciparum [1], 16.1%; in the assay with Plasmodium falciparum [2] it was -10.7%.

As for `CC(C)(C)C(=O)Nc1ccc(C(=O)Nc2cccc(-c3nc4ccccc4[nH]3)c2)cc1`, the inhibition was 14.15% in the assay on Plasmodium berghei, 11% in the assay on Plasmodium falciparum [1] and -2.43% in the assay with Plasmodium falciparum [2].

For `COc1cccc(-c2nn(C)c3sc(C(=O)NCCN4CCN(c5ccccc5F)CC4)cc23)c1`, the values for the inhibition with Plasmodium berghei, in the assay on Plasmodium falciparum [1] and in the assay with Plasmodium falciparum [2] were 2.067%, 14.1% and -2.79%, respectively.

For `CCOC(=O)C1=CN(C)C=C(C(=O)OCC)C1c1cc(Br)c(OCC)c(OC)c1`, the inhibition with Plasmodium berghei was -13.86%; in the assay on Plasmodium falciparum [1], 22.3%; with Plasmodium falciparum [2], -20.1%.

In the case of `CCCn1c(=N)c(C(=O)NC2CCCCC2)cc2c(=O)n3cccc(C)c3nc21`, the inhibition with Plasmodium berghei was -1.292%; in the assay on Plasmodium falciparum [1], 22.1%; with Plasmodium falciparum [2] it was -11.9%.

For `FC(F)(F)c1ccc(Nc2nnnc3ccccc23)cc1`, the figures for the inhibition with Plasmodium berghei, in the assay with Plasmodium falciparum [1] and with Plasmodium falciparum [2] were 36.6%, 33.7% and -30.5%, respectively.

Consider `OC(Cn1nnc2ccccc21)Cn1c2ccc(Br)cc2c2cc(Br)ccc21` (configuration not stated), for which the inhibition in the assay on Plasmodium berghei is -0.4033%; in the assay on Plasmodium falciparum [1] it was 33.4%; in the assay with Plasmodium falciparum [2] it was -23.3%.

Take `COc1cc2c(cc1OC)C1=NNC(=O)C1=NC(C)(C)C2`: the inhibition with Plasmodium berghei is -11.77%; in the assay on Plasmodium falciparum [1] it was 52.9%; with Plasmodium falciparum [2] it was -26.2%.

For `O=C(NC1CCN(Cc2ccccc2)CC1)c1cc2nc(-c3ccc(Cl)s3)cc(C(F)(F)F)n2n1`, the inhibition in the assay with Plasmodium berghei was 28.86%; in the assay with Plasmodium falciparum [1], -4.49%; in the assay on Plasmodium falciparum [2] it was -40.5%.

Take `CCOc1cc2c(cc1OCC)C(c1cc(C)c(O)c(C)c1)NCC2.Cl` (configuration not stated): the inhibition in the assay on Plasmodium berghei was -16.67%; in the assay on Plasmodium falciparum [1] it was -7.71%; with Plasmodium falciparum [2] it was 20.2%.

Consider `CN1c2ccccc2N(C)C1c1ccc2c(c1)OCO2`, for which the inhibition in the assay on Plasmodium berghei was 3.083%; in the assay on Plasmodium falciparum [1], 8.56%; with Plasmodium falciparum [2], -33.5%.

Consider `CCCCCCOC(=O)C1=C(C)NC(=O)NC1c1ccccc1F` (configuration not stated), for which the inhibition in the assay on Plasmodium berghei was -7.086%; with Plasmodium falciparum [1], 11.4%; with Plasmodium falciparum [2], -1.36%.

`COc1ccc(C2C(C(=O)Nc3cccc(OC)c3)c3ccccc3C(=O)N2C2CCCCC2)cc1` (configuration not stated): the inhibition was -12.06% in the assay with Plasmodium berghei, 46.2% in the assay on Plasmodium falciparum [1] and -25.1% with Plasmodium falciparum [2].

For the molecule `CCOc1cc2c(cc1OCC)C(c1cc(Cl)ccc1O)NCC2` (configuration not stated), the inhibition in the assay with Plasmodium berghei is 9.631%; with Plasmodium falciparum [1], 4.54%; in the assay with Plasmodium falciparum [2], -14.7%.

On to `Cc1cc(N(C)C)nc(Nc2ccc(NC(=O)Nc3ccccc3)cc2)n1`, for which the inhibition with Plasmodium berghei was -9.07%; with Plasmodium falciparum [1], 33.6%; with Plasmodium falciparum [2], -35.4%.

As to `CC1CC(C)CN(C(=O)c2ccc(Cl)cc2Cl)C1` (configuration not stated), the inhibition is -6.319% in the assay with Plasmodium berghei, 30.8% in the assay on Plasmodium falciparum [1] and -18.2% in the assay with Plasmodium falciparum [2].

As for `O=C(NC1CCCC1)c1ccc(N2CCC(NCc3cccc(C(F)(F)F)c3)CC2)cc1`, the inhibition was -10.11% with Plasmodium berghei, -12% in the assay with Plasmodium falciparum [1] and -14% in the assay on Plasmodium falciparum [2].

In the case of `Cc1cccc(N2C(=O)C3C(C2=O)C2(c4ccccc4)C(=O)C3(c3ccccc3)C(c3ccc4c(c3)OCO4)=C2c2ccc3c(c2)OCO3)c1` (configuration not stated), the values for the inhibition with Plasmodium berghei, in the assay with Plasmodium falciparum [1] and with Plasmodium falciparum [2] were -6.32%, 32.3% and -2.01%, respectively.

With `CCN(CC)CCNc1ccnc2cc(Cl)ccc12`, the values for the inhibition in the assay on Plasmodium berghei, with Plasmodium falciparum [1] and in the assay with Plasmodium falciparum [2] were -23.67%, -16.3% and -29.9%, respectively.

With `CCCCNCC(O)(c1ccc(Cl)cc1)c1ccc(Cl)cc1`, the inhibition was 10.56% in the assay with Plasmodium berghei, 5.76% with Plasmodium falciparum [1] and -11% in the assay with Plasmodium falciparum [2].

`Br.Cc1ccc(C)c(-c2csc(Nc3ccc(C)c(C)c3)n2)c1`: the inhibition in the assay on Plasmodium berghei was -11.38%; in the assay on Plasmodium falciparum [1], 20.6%; with Plasmodium falciparum [2] it was -46.3%.

On to `COc1ccc(C(=O)Nc2ccc3nc(N4CCCCC4)cc(C)c3c2)cc1OC`, for which the inhibition in the assay on Plasmodium berghei is -18.9%; with Plasmodium falciparum [1] it was 9.9%; in the assay with Plasmodium falciparum [2] it was -48%.

Take `O=C(Nc1ccc(-c2nc3cc4ccccc4cc3[nH]2)cc1)c1cccc(Br)c1`: the inhibition in the assay with Plasmodium berghei is -21.87%; with Plasmodium falciparum [1] it was 30.7%; in the assay with Plasmodium falciparum [2], -0.0992%.

Turning to `COc1ccc(/C=C2/SC(=Nc3ccccc3)NC2=O)cc1`, the inhibition was 15.63% in the assay on Plasmodium berghei, 3.39% in the assay with Plasmodium falciparum [1] and -46.5% in the assay with Plasmodium falciparum [2].

As to `O=C(Nc1ccc(Cl)c(Cl)c1)Nc1ccc(Cl)c(Cl)c1`, the values for the inhibition in the assay on Plasmodium berghei, in the assay with Plasmodium falciparum [1] and in the assay on Plasmodium falciparum [2] were -17.89%, -55.6% and -21.6%, respectively.

The term inhibition denotes the drop in the measured response relative to a control, in per cent.

Values taken from ChEMBL document CHEMBL3301451, “MMV Malaria Box gametocyte functional viability assay screening”.
